Values quoted from earlier work as cited in patent publication US20100081862A1, “Composition and method to modify sperm function and increase male gender ratio in mammals” (priority 2008, published 2010).

Assays:
[1] = test system: Hexose Monophosphate Shunt (HMS); details: bovine oocytes
[2] = test system: early-staged mouse embryos; details: living early-staged mouse embryos, transplanted to produce normal living offspring

CCN(CC)c1cc2c(cc1C)Nc1ccc(N)cc1O2 [BCB, 2-methyl-3-diethylamino-7-amino phenoxazine]
increase in oxidation of glucose through the HMS [1]: 15 fold | increase in glucose metabolism through glycolysis ([1]; compared with the increase through the HMS): somewhat less increase | toxicity of BCB and its metabolites [2]: relatively non-toxic
